Among the data in patent US12247010B2, “Tubulin inhibitors” (LIN BIOSCIENCE PTY LTD., priority 2017, dated 2025) are IC50 values, retold here.

The subject of the experiment is U87MG cells. The experiment is described as follows: Cytotoxicity assay (cell viability, CellTiter 96 Aqueous MTS). Format: cell-based. The settings on record: Homo sapiens, U-87 MG, 72 h, 72 hours incubation, starting concentration 50 uM, 9 point half log dilution, average where tested repeatedly. As to the method:
Example 3: Cytotoxicity Assay
U87MG cells were plated at a density of 7×10^3 cells/well and allowed to seed overnight. Cells were then treated with compounds from Table 1 or CMPD-1 (4-(2′-fluoro-[1,1′-biphenyl]-4-yl)-N-(4-hydroxyphenyl)butanamide as a positive control) were added to cells at a starting concentration of 50 uM, with a 9 point half log dilution, and incubated for 72 hours prior to viability determination. IC50 values were calculated from cell viability as measured using the CellTiter 96® Aqueous MTS reagent from Promega©, and the results are shown in Table 2.

Structures are written as SMILES.

For `Cc1nn(C)cc1C(=O)NCCCc1ccc(-c2ccccc2F)cc1` [Compound 133, N-(3-(2′-fluoro-[1,1′-biphenyl]-4-yl)propyl)-1,3-dimethyl-1H-pyrazole-4-carboxamide], the IC50 was greater than 5 µM.

For `O=C(NCCCc1ccc(-c2ccccc2F)cc1)c1ccc[nH]1` [Compound 134, N-(3-(2′-fluoro-[1,1′-biphenyl]-4-yl)propyl)-1H-pyrrole-2-carboxamide], the concentration for half-maximal inhibition (IC50) lay in the range of 1 to 5 µM.

Take `O=C(NCCCc1ccc(-c2ccccc2F)cc1)c1cnc2ccccn12` [Compound 137, N-(3-(2′-fluoro-[1,1′-biphenyl]-4-yl)propyl)imidazo[1,2-a]pyridine-3-carboxamide]: the IC50 lay within 1 to 5 µM.

`Cc1cc(C(=O)NCCCc2ccc(-c3ccccc3F)cc2)[nH]n1` [Compound 139, N-(3-(2′-fluoro-[1,1′-biphenyl]-4-yl)propyl)-3-methyl-1H-pyrazole-5-carboxamide] had an IC50 of 0.501 to 1 µM.

`Cc1ccc(CC(=O)NCCCc2ccc(-c3ccccc3F)cc2)cc1` [Compound 140, N-(3-(2′-fluoro-[1,1′-biphenyl]-4-yl)propyl)-2-(p-tolyl)acetamide] gave an IC50 of less than 0.5 µM.

Take `Cc1nc(C(=O)NCCCc2ccc(-c3ccccc3F)cc2)cs1` [Compound 141, N-(3-(2′-fluoro-[1,1′-biphenyl]-4-yl)propyl)-2-methylthiazole-4-carboxamide]: the IC50 was greater than 5 µM.

`CC(C)c1cc(C(=O)NCCCc2ccc(-c3ccccc3F)cc2)n(C)n1` [Compound 142, N-(3-(2′-fluoro-[1,1′-biphenyl]-4-yl)propyl)-3-isopropyl-1-methyl-1H-pyrazole-5-carboxamide] showed an IC50 greater than 5 µM.

On to `Cn1nc2ccccc2c1C(=O)NCCCc1ccc(-c2ccccc2F)cc1` [Compound 143, N-(3-(2′-fluoro-[1,1′-biphenyl]-4-yl)propyl)-2-methyl-2H-indazole-3-carboxamide], for which the IC50 is greater than 5 µM.

In the case of `Cc1noc(C)c1C(=O)NCCCc1ccc(-c2ccccc2F)cc1` [Compound 144, N-(3-(2′-fluoro-[1,1′-biphenyl]-4-yl)propyl)-3,5-dimethylisoxazole-4-carboxamide], the IC50 is greater than 5 µM.

On to `Cc1cnoc1C(=O)NCCCc1ccc(-c2ccccc2F)cc1` [Compound 145, N-(3-(2′-fluoro-[1,1′-biphenyl]-4-yl)propyl)-4-methylisoxazole-5-carboxamide], for which the IC50 is greater than 5 µM.

In the case of `Cn1cc(C(=O)NCCCc2ccc(-c3ccccc3F)cc2)cn1` [Compound 146, N-(3-(2′-fluoro-[1,1′-biphenyl]-4-yl)propyl)-1-methyl-1H-pyrazole-4-carboxamide], the IC50 fell in the range of 1 to 5 µM.

Turning to `Cn1ncc2cc(-c3ccc(CCCC(=O)Nc4cccnc4)cc3)ccc21` [Compound 148, 4-(4-(1-methyl-1H-indazol-5-yl)phenyl)-N-(pyridin-3-yl)butanamide], the IC50 was less than 0.5 µM.

The molecule `O=C(CCCc1ccc(-c2cccc(F)c2F)cc1)Nc1cccnc1` [Compound 149, 4-(2′,3′-difluoro-[1,1′-biphenyl]-4-yl)-N-(pyridin-3-yl)butanamide] returned an IC50 of 0.501 to 1 µM.

The molecule `O=C(CCCc1ccc(-c2ccccc2)cc1)Nc1cccnc1` [Compound 151, 4-([1,1′-biphenyl]-4-yl)-N-(pyridin-3-yl)butanamide] showed an IC50 of 1 to 5 µM.

Molecule `Cc1ccccc1-c1ccc(CCCC(=O)Nc2cccnc2)cc1` [Compound 152, 4-(2′-methyl-[1,1′-biphenyl]-4-yl)-N-(pyridin-3-yl)butanamide] gave a 50% inhibitory concentration (IC50) greater than 5 µM.

In turn, `Cc1ccc(-c2ccc(CCCC(=O)Nc3cccnc3)cc2)cn1` [Compound 153, 4-(4-(6-methylpyridin-3-yl)phenyl)-N-(pyridin-3-yl)butanamide] displayed an IC50 greater than 5 µM.

`O=C(CCCc1ccc(-c2ccccc2OC(F)(F)F)cc1)Nc1cccnc1` [Compound 154, N-(pyridin-3-yl)-4-(2′-(trifluoromethoxy)-[1,1′-biphenyl]-4-yl)butanamide]: the half-maximal inhibitory concentration (IC50) was 1 to 5 µM.

`O=C(CCCc1ccc(-c2ccc(C(F)(F)F)nc2)cc1)Nc1cccnc1` [Compound 155, N-(pyridin-3-yl)-4-(4-(6-(trifluoromethyl)pyridin-3-yl)phenyl)butanamide] yielded an IC50 of 0.501 to 1 µM.

Molecule `Cc1cc(-c2ccc(CCCC(=O)Nc3cccnc3)cc2)ccn1` [Compound 156, 4-(4-(2-methylpyridin-4-yl)phenyl)-N-(pyridin-3-yl)butanamide] registered an IC50 greater than 5 µM.

`O=C(CCCc1ccc(-c2ccc(F)cc2F)cc1)Nc1cccnc1` [Compound 157, 4-(2′,4′-difluoro-[1,1′-biphenyl]-4-yl)-N-(pyridin-3-yl)butanamide]: the IC50 was in the range of 1 to 5 µM.

For `O=C(CCCc1ccc(-c2cccnc2)cc1)Nc1cccnc1` [Compound 158, N-(pyridin-3-yl)-4-(4-(pyridin-3-yl)phenyl)butanamide], the IC50 is greater than 5 µM.

Consider `O=C(CCCc1ccc(-c2c(F)cccc2F)cc1)Nc1cccnc1` [Compound 159, 4-(2′,6′-difluoro-[1,1′-biphenyl]-4-yl)-N-(pyridin-3-yl)butanamide], for which the IC50 lay within 1 to 5 µM.

Turning to `O=C(CCCc1ccc(-c2ccccc2Cl)cc1)Nc1cccnc1` [Compound 160, 4-(2′-chloro-[1,1′-biphenyl]-4-yl)-N-(pyridin-3-yl)butanamide], the IC50 fell in the range of 1 to 5 µM.

In the case of `O=C(CCCc1ccc(-c2ccc3nonc3c2)cc1)Nc1cccnc1` [Compound 161, 4-(4-(benzo[c][1,2,5]oxadiazol-5-yl)phenyl)-N-(pyridin-3-yl)butanamide], the IC50 was greater than 5 µM.

`O=C(CCCc1ccc(-c2ccc3c(c2)OCCO3)cc1)Nc1cccnc1` [Compound 162, 4-(4-(2,3-dihydrobenzo[b][1,4]dioxin-6-yl)phenyl)-N-(pyridin-3-yl)butanamide] had an IC50 of 0.501 to 1 µM.

`O=C(CCCc1ccc(-c2ccc3ncccc3c2)cc1)Nc1cccnc1` [Compound 163, N-(pyridin-3-yl)-4-(4-(quinolin-6-yl)phenyl)butanamide] had an IC50 of less than 0.5 µM.

`Cn1cc2cc(-c3ccc(CCCC(=O)Nc4cccnc4)cc3)ccc2n1` [Compound 164, 4-(4-(2-methyl-2H-indazol-5-yl)phenyl)-N-(pyridin-3-yl)butanamide] came in with an IC50 of 0.501 to 1 µM.

The molecule `Cn1cc2c(-c3ccc(CCCC(=O)Nc4cccnc4)cc3)cccc2n1` [Compound 165, 4-(4-(2-methyl-2H-indazol-4-yl)phenyl)-N-(pyridin-3-yl)butanamide] gave an IC50 of 1 to 5 µM.

Take `Cn1ncc2ccc(-c3ccc(CCCC(=O)Nc4cccnc4)cc3)cc21` [Compound 166, 4-(4-(1-methyl-1H-indazol-6-yl)phenyl)-N-(pyridin-3-yl)butanamide]: the IC50 was in the range of 1 to 5 µM.

The molecule `COc1ccc(-c2ccc(CCCC(=O)Nc3cccnc3)cc2)cn1` [Compound 167, 4-(4-(6-methoxypyridin-3-yl)phenyl)-N-(pyridin-3-yl)butanamide] showed an IC50 greater than 5 µM.

`COc1ccc(-c2ccc(CCCC(=O)Nc3cccnc3)cc2)cc1OC` [Compound 168, 4-(3′,4′-dimethoxy-[1,1′-biphenyl]-4-yl)-N-(pyridin-3-yl)butanamide] showed an IC50 of 1 to 5 µM.

Regarding `Cn1ccc2cc(-c3ccc(CCCC(=O)Nc4cccnc4)cc3)ccc21` [Compound 169, 4-(4-(1-methyl-1H-indol-5-yl)phenyl)-N-(pyridin-3-yl)butanamide], the IC50 is 0.501 to 1 µM.

For the molecule `O=C(CCCc1ccc(-c2ccc3ocnc3c2)cc1)Nc1cccnc1` [Compound 173, 4-(4-(benzo[d]oxazol-5-yl)phenyl)-N-(pyridin-3-yl)butanamide], the IC50 lay in the range of 0.501 to 1 µM.

In turn, `COc1ccc(F)c(-c2ccc(CCCC(=O)Nc3cccnc3)cc2)c1` [Compound 175, 4-(2′-fluoro-5′-methoxy-[1,1′-biphenyl]-4-yl)-N-(pyridin-3-yl)butanamide] showed an IC50 of 0.501 to 1 µM.

`O=C(CCCc1ccc(-c2cn[nH]c2)cc1)Nc1cccnc1` [Compound 176, 4-(4-(1H-pyrazol-4-yl)phenyl)-N-(pyridin-3-yl)butanamide] displayed an IC50 greater than 5 µM.

`O=C(CCCc1ccc(-c2ccc3c(c2)NC(=O)C3)cc1)Nc1cccnc1` [Compound 177, 4-(4-(2-oxoindolin-6-yl)phenyl)-N-(pyridin-3-yl)butanamide] registered an IC50 of 0.501 to 1 µM.

The molecule `COc1ncccc1-c1ccc(CCCC(=O)Nc2cccnc2)cc1` [Compound 178, 4-(4-(2-methoxypyridin-3-yl)phenyl)-N-(pyridin-3-yl)butanamide] registered an IC50 greater than 5 µM.

In turn, `O=C(CCCc1ccc(-c2cc(Cl)ccc2F)cc1)Nc1cccnc1` [Compound 179, 4-(5′-chloro-2′-fluoro-[1,1′-biphenyl]-4-yl)-N-(pyridin-3-yl)butanamide] gave an IC50 greater than 5 µM.

In turn, `Cc1c(-c2ccc(CCCC(=O)Nc3cccnc3)cc2)ccc2[nH]ncc12` [Compound 180, 4-(4-(4-methyl-1H-indazol-5-yl)phenyl)-N-(pyridin-3-yl)butanamide] registered an IC50 of less than 0.5 µM.

Molecule `O=C(CCCc1ccc(-c2cnc3[nH]ccc3c2)cc1)Nc1cccnc1` [Compound 181, 4-(4-(1H-pyrrolo[2,3-b]pyridin-5-yl)phenyl)-N-(pyridin-3-yl)butanamide] returned an IC50 of less than 0.5 µM.

`O=C(CCCc1ccc(-c2cnc3ccccc3c2)cc1)Nc1cccnc1` [Compound 183, N-(pyridin-3-yl)-4-(4-(quinolin-3-yl)phenyl)butanamide]: the IC50 is 1 to 5 µM.

In the case of `COc1cccc(-c2ccc(CCCC(=O)Nc3cccnc3)cc2)c1F` [Compound 184, 4-(2′-fluoro-3′-methoxy-[1,1′-biphenyl]-4-yl)-N-(pyridin-3-yl)butanamide], the IC50 is less than 0.5 µM.

Take `O=C(CCCc1cccc(-n2cccn2)c1)Nc1cccnc1` [Compound 185, 4-(3-(1H-pyrazol-1-yl)phenyl)-N-(pyridin-3-yl)butanamide]: the concentration for half-maximal inhibition (IC50) is greater than 5 µM.
